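Following 48 hours of exposure in 96-well plates, responses at five concentrations were used to interpolate endpoints linearly. At the GI50, growth is halved.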 Active and inactive are the calls of the source. No stated cut-off is given here; in the data, active = GI50 up to about 1.1 µM and inactive = higher.

Some test systems named below: ACHN; BT-549; EKVX; HCT-116; HCT-15; IGROV-1; K562; M14; NCI-H226; NCI-H460; NCI/ADR-RES; OVCAR-3; OVCAR-8; RPMI-8226; SK-MEL-28; SK-MEL-2; SK-OV-3; SNB-19; UACC-257; UACC-62.
Experiment in all cases: DTP human tumour cell line panel, 48 h

In general, GI50 refers to the concentration giving 50% growth inhibition. With `O=C1CCCc2ccc3c(c21)CC1(Cc2cc4c(cc2C1)CCCC4)C3`, the GI50 in the experiment with ACHN is 16.1 µM (inactive); in the experiment with BT-549, 25.1 µM (inactive); in the experiment with EKVX, 21.1 µM (inactive); in the experiment with HCT-116, 16.1 µM (inactive); in the experiment on HCT-15, 19.4 µM; in the experiment with IGROV-1, 24.7 µM (inactive). Also, the GI50 with K562 is 6.49 µM (inactive); in the experiment on M14, 16.9 µM (inactive); with NCI-H226, 17.4 µM (inactive); in the experiment on NCI-H460, 22.8 µM (inactive); with NCI/ADR-RES, 25.9 µM (inactive); in the experiment on OVCAR-3, 20.1 µM (inactive). For the same compound, the GI50 is 19.7 µM (inactive) in the experiment with OVCAR-8; 10.2 µM (inactive) with RPMI-8226; 24.9 µM (inactive) with SK-MEL-28; 21.2 µM (inactive) with SK-MEL-2; 43.9 µM (inactive) in the experiment with SK-OV-3; 26.6 µM (inactive) in the experiment on SNB-19. The values for the GI50 in the experiment on UACC-257 and in the experiment with UACC-62 were 18.5 µM (inactive) and 20.3 µM (inactive), respectively.

Regarding `NC1=Nc2ccccc2Sc2nnc(-c3ccc(Cl)cc3)n21`, the GI50 in the experiment on ACHN was 47 µM (inactive); in the experiment with BT-549 it was > 100 µM (inactive); with EKVX it was 75.3 µM (inactive); in the experiment on HCT-116, 9.53 µM (inactive); in the experiment with HCT-15, 7.16 µM; with IGROV-1 it was 48.8 µM (inactive). The GI50 is 12.2 µM (inactive) with K562; > 100 µM (inactive) in the experiment with M14; > 100 µM (inactive) in the experiment with NCI-H226; 21.9 µM (inactive) in the experiment on NCI-H460; 33.2 µM (inactive) in the experiment on NCI/ADR-RES; > 100 µM (inactive) in the experiment on OVCAR-3. Moreover, the GI50 was 26.7 µM (inactive) with OVCAR-8; 87.3 µM (inactive) with RPMI-8226; > 100 µM (inactive) with SK-MEL-28; > 100 µM (inactive) with SK-MEL-2; > 100 µM (inactive) with SK-OV-3; 46.8 µM (inactive) in the experiment on SNB-19. The GI50 in the experiment on UACC-257 is > 100 µM (inactive); with UACC-62, 61.4 µM (inactive).

Values taken from ChEMBL document CHEMBL1201862, “PubChem BioAssay data set” (2004).
